For 10 compounds, IC50 results are on record in patent US20240270758A1, “PYRIDINO-OR PYRIMIDO-CYCLIC COMPOUND, PREPARATION METHOD THEREFOR AND MEDICAL USE THEREOF” (Genfleet Therapeutics (Shanghai) Inc., priority 2021, published 2024).

pIC50: −log10 of the molar value.

The test system of assay [1] is p-ERK in AGS cells (KRAS^G12D mutation). The experiment in a line: Cell p-ERK detection assay. The format is cell-based, human. The conditions noted are these: 3 h incubation, HTRF. As for the experimental part: AGS was purchased from ATCC; Cat. NO.: CRL-1739; F12K was purchased from Gibco; Cat. NO.: 21127-022; FBS was purchased from Gibco; Cat. NO.: 10099-141C; Trypsin (containing EDTA) was purchased from Gibco; Cat. NO.: 25200-072; DMSO was purchased from VWRAMRESCO; Cat. NO.: 0231-500ML; 96-well cell culture plate was purchased from Corning; Cat. NO.: 3599; An white background opaque 96-well plate was purchased from Cisbio; Cat. NO.: 66PL96025; Advance ERK phospho-T202/Y204 kit was purchased from Cisbio; Cat. NO.: 64AERPEH; Cell Counters were purchased from CHEMOMETEC; Model NO.: NC-200; microplate reader was purchased from PerkinElmer; Model NO.: Envison.
AGS is an endogenous human gastric adenocarcinoma cell line containing KRAS^G12D mutation, cultured in F12K+10% FBS medium. On the first day of the experiment, cells in the logarithmic growth phase were taken, digested with trypsin (containing EDTA), collected, and counted, and approximately 20,000 cells/well were inoculated in 96-well cell culture plates and cultured overnight in a 5% CO2 incubator. A 1000×3.16-fold gradient concentration stock of the compound was prepared using DMSO, diluted 200-fold into a 5× compound stock using the medium described above, and a 5× compound stock was added to each cell culture well the day after cell inoculating at a final concentration of 1× and a DMSO content of 0.1%. DMSO was used as an experimental control. After the compound was added and the incubation was continued for 3 h, the medium in the culture wells was removed, […] of cell lysis solution (from Advance ERK phospho-T202/Y204 kit, the same below) was added to each well, mixed well and incubated for 30 min, then […] of the mixed solution was transferred to a white background opaque 96-well plate, and another well was taken as a blank well with adding […] of cell lysis solution. After the transfer, […] of p-ERK HTRF antibody mixed solution (from Advance ERK phospho-T202/Y204 kit) was added to each well, after incubation for 4 h, HTRF fluorescence value (RLU) was read by a microplate reader, and p-ERK level inhibition ratio of the compound was calculated IR (%)=(RLU control-RLU compound)/(RLU control-RLU blank)×100%, compound concentration and corresponding cell p-ERK level inhibition ratio were fitted using Prism 8 four-parameter method, and IC50 value was calculated.

Assay [2] relates to AGS cells (KRAS^G12D mutation). The experiment in a line: Cell proliferation inhibition assay (3D, CellTiter-Glo), AGS. The class given is cell-based, human. The settings on record: 3D cell model, 5 days. An excerpt:
(§1) AsPC-1 was purchased from ATCC; Cat. NO.: CRL-1682; AGS was purchased from ATCC; Cat. NO.: CRL-1739; RPMI1640 was purchased from Gibco; Cat. NO.: 11875-093 2235123; F12K was purchased from Gibco; Cat. NO.: 21127-022; FBS was purchased from Gibco; Cat. NO.: 10099-141C; Trypsin (containing EDTA) was purchased from Gibco; Cat. NO.: 25200-072; CellTiter Glo-3D was purchased from Progema; Cat. NO.: G9683; 384-well sphere plates were purchased from coming; Cat. NO.: 3830; White background opaque 384-well plates were purchased from coming; Cat. NO.: 3570; Cell Counters were purchased from CHEMOMETEC; Model NO.: NC-200; microplate reader was purchased from PerkinElmer; Model NO.: Envison;
(§2) AsPC-1 is an endogenous human pancreatic cancer cell containing KRAS^G12D mutation, which is cultured in RPMI-1640 medium containing 10% FBS; AGS human gastric cancer cell line containing KRAS^G12D mutation, cultured in F-12K medium containing 10% FBS. Cells in the logarithmic growth phase were taken, digested with trypsin (containing EDTA), harvested and counted, and inoculated with 800 AsPC-1 cells/well or 400 AGS cells/well, respectively, in 384-well sphere plates and cultured overnight at 5% C02 to establish a 3D cell model. A 3.16-fold gradient concentration stock solution of 1000× compound was prepared using DMSO, diluted 100-fold into a 10× compound stock solution using media, and a 10× compound stock solution was added to each cell culture well the day after cell inoculating at a final concentration of 1× with a DMSO content of 0.1%. DMSO was used as an experimental control (control) and culture medium as a blank control (blank). After the addition of compounds, the cells were cultured for 5 days. […] CellTiter-Glo working solution was added to each well, mixed well, and incubated for 30 min. After standing for 30 min at room temperature, 40 μl of the mixed solution was transferred to a white background opaque 384-well plate. Luminescence chemiluminescence value was read on a microplate reader, and the cell proliferation inhibition ratio was calculated, IR (%)=(RLU control-RLU compound)/(RLU control-RLU blank)×100%. XLFit four-parameter method was used to fit the gradient dilution concentration of compounds and the corresponding cell proliferation inhibition ratio, and the IC50 value was calculated. […] Results for exemplary of the example compounds are shown in Table 3 below. - indicates not detected.

Assay [3] addresses KRAS^G12D mutant protein binding to RBD region fragment of RAF1 protein (Homo sapiens (Human), UniProt P01116, G12D). The assay can be described thus: KRAS-RAF1 binding assay (HTRF), KRAS G12D. The settings on record: His-KRAS^G12D, GST-RAF1-RBD, GTP. As for the experimental part: (§3) GST-RAF1-RBD was purchased from BPS Bioscience; Cat. NO.: 100519; KRAS^G12D was purchased from BPS Bioscience; Cat. NO.: 100623; KRAS^wt was purchased from Reactionbiology; GTP was purchased from Sigma; Cat. NO.: G8877; Mab Anti GST-XL665 was purchased from cisbio; Cat. NO.: 61GSTXLF; Eu-W1024-anti-6×HIS was purchased from PE; Cat. NO.: AD0111; ProxiPlate-384-Plates was purchased from PerkinElmer; Cat. NO.: 6008289; DMSO was purchased from VWR AMRESCO; Cat. NO.: 0231-500ML; microplate reader was purchased from PerkinElmer; Cat. NO.: Envison;
(§4) This experiment is intended to investigate the inhibitory effect of compounds on the binding of KRAS^G12D mutant protein or KRAS^Wt (wild type) protein to fragments of the RBD region fragment of RAF1 protein. A 500×3-fold gradient concentration stock of compound was prepared using DMSO and diluted 50-fold into a 10× stock of compound using reaction buffer. To the reaction wells of an ELISA plate (ProxiPlate-384-Plates), was first added 3 µL of His-KRAS^G12D protein or KRAS^wt protein, then added 1 μL of 200 µM GTP and incubated for 30 min, then added 2 μL of 10× compound or reaction buffer with 2% DMSO (positive control) and incubated for 30 min, then added 4 μL of GST-RAF1-RBD protein or reaction buffer (negative control) and incubated for 15 min, then added […] anti-His antibody and XL665-labeled anti-GST antibody mixed well in advance and incubated for 60 min before reading HTRF signal by microplate reader. The inhibition ratio of compounds on KRAS protein (G12D mutant or wild type) and RAF1 binding was calculated IR (%)=(positive control signal-compound well signal)/(positive control signal-negative control signal)×100% and IC50 values were calculated by fitting compound concentrations and corresponding inhibition ratios using the Prism 8 four-parameter method. […] While the inhibition IC50 values of the compounds on the binding of KRAS^wt (wild type) protein to the RBD region fragment of RAF1 protein was more than 40 nM or 100 nM, or more than 500 nM, or even more than 1 μM or 2 μM.

Assay [4] deals with KRAS^wt (wild type) protein binding to RBD region fragment of RAF1 protein (Homo sapiens (Human), UniProt P01116). The assay can be described thus: KRAS-RAF1 binding assay (HTRF), KRAS wild type. The conditions noted are these: GST-RAF1-RBD, GTP. As for the experimental part:
as §3, §4

Assay [5] relates to AsPC-1 cells (KRAS^G12D mutation). The assay can be described thus: Cell proliferation inhibition assay (3D, CellTiter-Glo), AsPC-1. The format is cell-based, human. The settings on record: 3D cell model, 5 days.
Text: as §1, §2

Sequence of KRAS^wt (wild type) protein binding to RBD region fragment of RAF1 protein (P01116-2 other isoform, or with tags, fused parts or gaps): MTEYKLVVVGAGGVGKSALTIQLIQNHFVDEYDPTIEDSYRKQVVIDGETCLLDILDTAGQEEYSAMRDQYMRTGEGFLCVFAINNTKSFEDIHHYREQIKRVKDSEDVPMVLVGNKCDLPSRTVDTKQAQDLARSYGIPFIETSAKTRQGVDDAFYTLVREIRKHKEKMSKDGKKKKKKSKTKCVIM
Sequence of KRAS^G12D mutant protein binding to RBD region fragment of RAF1 protein (P01116-2 other isoform, or with tags, fused parts or gaps G12D): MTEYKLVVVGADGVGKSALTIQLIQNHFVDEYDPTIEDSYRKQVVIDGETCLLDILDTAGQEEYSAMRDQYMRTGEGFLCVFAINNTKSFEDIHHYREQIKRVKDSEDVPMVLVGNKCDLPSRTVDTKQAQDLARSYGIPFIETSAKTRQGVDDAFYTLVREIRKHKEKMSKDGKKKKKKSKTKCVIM

Regarding `C#Cc1c(F)ccc2cc(O)cc(-c3ccc4c(N5C[C@H]6CC[C@@H](C5)N6)nc(OCC56CCCN5CCC6)nc4c3F)c12` [Example Z9, 4-(4-((1R,5S)-3,8-diazabicyclo[3.2.1]octan-3-yl)-8-fluoro-2-((tetrahydro-1H-pyrrolizin-7a(5H)-yl)methoxy)quinazolin-7-yl)-5-ethynyl-6-fluoronaphthalen-2-ol], the pIC50 in assay [1] (Homo sapiens, AGS, 3 h) is 7.62; in assay [2] (Homo sapiens, AGS, 120 h), 6.84; in assay [3] it was 7.10; in assay [4] it was 6.58; in assay [5] (Homo sapiens, ASPC1, 120 h), 6.52.

For `C#Cc1cccc2cc(O)cc(-c3ncc4c(N5CC6CCC(C5)C6N)nc(OCC56CCCN5CCC6)nc4c3F)c12` (centres unmarked) [Example Z2], the pIC50 in assay [3] is 6.73; in assay [4] it was 6.10.

For `C#Cc1cccc2cc(O)cc(-c3ncc4c(N5C[C@H]6C=C[C@@H](C5)N6)nc(OCC56CCCN5CCC6)nc4c3F)c12` [Example Z4, 4-(4-((1R,5S)-3,8-diazabicyclo[3.2.1]oct-6-en-3-yl)-8-fluoro-2-((tetrahydro-1H-pyrrolizin-7a(5H)-yl)methoxy)pyrido[4,3-d]pyrimidin-7-yl)-5-ethynylnaphthalen-2-ol], the pIC50 in assay [1] (Homo sapiens, AGS, 3 h) is 7.33; in assay [2] (Homo sapiens, AGS, 120 h), 6.44; in assay [3], 7.69; in assay [4], 6.41.

As for `C#Cc1cccc2cc(O)cc(-c3ncc4c(N5CC6CCC(C5)C6N)nc(OCC56CCCN5CCC6)nc4c3F)c12` (centres unmarked) [Example Z1], the values for the pIC50 in assay [3] and in assay [4] were 6.59 and 5.58, respectively.

As for `C#Cc1cccc2cc(O)cc(-c3ncc4c(N5C[C@H]6CC[C@@H](C5)N6)nc(OCC56CC(=C)CN5CCC65CC5)nc4c3F)c12` (stereo partly drawn) [Example Z106, 4-(4-((1R,5S)-3,8-diazabicyclo[3.2.1]octan-3-yl)-8-fluoro-2-((6′-methylenetetrahydrospiro[cyclopropane-1,1′-pyrrolizin]-7a′(5′H)-yl)methoxy)pyrido[4,3-d]pyrimidin-7-yl)-5-ethynylnaphthalen-2-ol], the pIC50 in assay [1] (Homo sapiens, AGS, 3 h) is 8.87; in assay [2] (Homo sapiens, AGS, 120 h), 8.34; in assay [5] (Homo sapiens, ASPC1, 120 h), 7.83.

`C#Cc1cccc2cccc(-c3ncc4c(N5C[C@H]6CC[C@@H](C5)N6)nc(OCC56CC(=C)CN5CC(=C)C6)nc4c3F)c12` [Example Z190, 4-((1R,5S)-3,8-diazabicyclo[3.2.1]octan-3-yl)-2-((2,6-dimethylenetetrahydro-1H-pyrrolizin-7a(5H)-yl)methoxy)-7-(8-ethynylnaphthalen-1-yl)-8-fluoropyrido[4,3-d]pyrimidine]: the pIC50 in assay [1] (Homo sapiens, AGS, 3 h) was 6.98; in assay [2] (Homo sapiens, AGS, 120 h), 6.69; in assay [5] (Homo sapiens, ASPC1, 120 h), 6.31.

Take `C#Cc1cccc2cc(O)cc(-c3ncc4c(N5C[C@@H]6N[C@H](C5)[C@@H]5C[C@@H]56)nc(OCC56CCCN5CCC6)nc4c3F)c12` [Example Z10, 5-ethynyl-4-(8-fluoro-2-((tetrahydro-1H-pyrrolizin-7a(5H)-yl)methoxy)-4-((1R, 2S, 4R, 5S)-7,9-diazatricyclo[3.3.1.0^2,4]nonan-7-yl)pyrido[4,3-d]pyrimidin-7-yl)naphthalen-2-ol]: the pIC50 in assay [1] (Homo sapiens, AGS, 3 h) is 6.67; in assay [3] it was 7.20; in assay [4] it was 6.93.

On to `C#Cc1c(F)ccc2cc(O)cc(-c3ncc4c(N5C[C@H]6CC[C@@H](C5)N6)nc(OCC56CC(=C)CN5[C@H]5C[C@H]5C6)nc4c3F)c12` (stereo partly drawn) [Example Z210, 4-(4-((1R,5S)-3,8-diazabicyclo[3.2.1]octan-3-yl)-8-fluoro-2-(((1aS,6aS)-4-methylenehexahydrocyclopropa[b]pyrrolizin-5a(3H)-yl)methoxy)pyrido[4,3-d]pyrimidin-7-yl)-5-ethynyl-6-fluoronaphthalen-2-ol], for which the pIC50 in assay [1] (Homo sapiens, AGS, 3 h) was 7.78; in assay [2] (Homo sapiens, AGS, 120 h) it was 7.59; in assay [5] (Homo sapiens, ASPC1, 120 h) it was 6.75.

As for `C#Cc1cccc2cccc(-c3ncc4c(N5C[C@H]6C=C[C@@H](C5)N6)nc(OCC56CCCN5CCC6)nc4c3F)c12` [Example Z6, 4-((1R,5S)-3,8-diazabicyclo[3.2.1]oct-6-en-3-yl)-7-(8-ethynylnaphthalen-1-yl)-8-fluoro-2-((tetrahydro-1H-pyrrolizin-7a(5H)-yl)methoxy)pyrido[4,3-d]pyrimidine], the pIC50 is 6.37 in assay [1] (Homo sapiens, AGS, 3 h); 6.09 in assay [2] (Homo sapiens, AGS, 120 h); 7.29 in assay [3]; below 5.00 in assay [4].

Consider `C#Cc1cccc2cc(O)cc(-c3ccc4c(N5CC6CCC(C5)N6)nc(OCC56CCCN5CC(=C)C6)nc4c3F)c12` [Example Z99, 4-(4-(1R,5S)-3,8-diazabicyclo[3.2.1]octan-3-yl)-8-fluoro-2-((2-methylenetetrahydro-1H-pyrrolizin-7a(5H)-yl)methoxy)quinazolin-7-yl)-5-ethynylnaphthalen-2-ol], for which the pIC50 was 8.54 in assay [1], 8.28 in assay [2] and 7.44 in assay [5].
